# Reference: patent US20250222109A1, “STRUCTURED LIPID COMPOSITIONS” (Universität Bern, priority 2022, published 2025)
# Columns and labels:
# [1] = Stability study of TAC and TOFA-loaded TIF-Gel (HPLC); type: physicochemical; conditions: 4° C. and 25° C., one-month period
# Protocol: The TAC and TOFA-loaded TIF-Gels were prepared according to Example 1. […] The TAC-loaded TIF-Gel composition comprised a) a carrier comprising: a1) water in an amount of 16% by weight of the carrier; and a2) MLO in an amount of 84% by weight of the carrier; and b) TAC in an amount of 1% by weight of the composition. […] At specific time points, an aliquot of the formulation was analysed at the HPLC, and the content of the drug was recorded. Data are expressed as relative percentage referred to day 0.
# [2] = Drug encapsulation and distribution in TIF-Gel (WAXS, HPLC of gel layers); type: physicochemical
# Protocol: The tube was centrifuged and kept at rest for 24 hours. Subsequently, the gel was divided into 3 different layers (Top, Middle, and Bottom), and the drug content evaluated in each by HPLC.
# WAXS measurements were performed on a Bruker AXS Micro, with a microfocused X-ray source, operating at voltage and filament current of 50 kV and 1000 μA, respectively. The Cu Kα radiation (λCu Kα=1.5418 Å) was collimated by a 2D Kratky collimator, and the data were collected by a 2D Pilatus 100K detector. The scattering vector Q=(4π/λ) sin θ, with 2θ being the scattering angle, was calibrated using silver behenate. Data were collected and azimuthally averaged using the Saxsgui software to yield 1D intensity vs. scattering vector Q, with a Q range from 13 to 18 nm-1. For all measurements the samples were placed inside a stainless-steel cell between two thin replaceable mica sheets and sealed by an O-ring, with a sample volume of 10 μL and a thickness of ˜1 mm.
# The TAC loaded mesophase composition comprised: a) a carrier comprising: a1) water in an amount of 16% by weight of the carrier; and a2) MLO in an amount of 84% by weight of the carrier; and b) TAC in an amount of 1% by weight of the composition.
# [3] = system: T cell transfer colitis; test: T-cell transfer colitis; type: in vivo, mice
# Text: To induce T cell mediated colitis, CD4+ T cells were isolated from the spleen of C57/BL6 mice (Strain #: 000664; RRID:IMSR_JAX: 000664 ex. Jackson laboratories) using the CD4 T cell isolation kit from Stemcell Technologies (#19852; Cologne, Germany) and subsequently naïve T helper cells (CD3+, CD4+, CD25low, […], CD44low cells) were sorted on a FACS Aria III (Becton Dickinson; Eysins, Switzerland) as described previously (D. V. Ostanin, et al., T cell transfer model of chronic colitis: Concepts, considerations, and tricks of the tradeAm. J. Physiol.—Gastrointest. Liver Physiol. 296, 135-146 (2009); M. R. Spalinger, et al., PTPN2 controls differentiation of CD4+ T cells and limits intestinal inflammation and intestinal dysbiosis, Mucosal Immunol. 8, 918-929 (2015); M. R. Spalinger, et al., Loss of PTPN22 Promotes Intestinal Inflammation by Compromising Granulocyte-mediated Antibacterial Defence, J. Crohn's Colitis 15, 2118-2130 (2021)). 12-15 week old male and female Rag^−/− mice in the C57/BL6 background (model RAGN12 (B6.129S6-Rag2^tm1Fwa N12) ex. Taconic) were injected intraperitoneally with 2.5×10^5 naïve T helper cells (all methods used were approved under licence no. ZH043/2021). Starting on day 2 post T cell injection, the mice received one daily rectal instillation (100 μL) of empty TIF-Gels, TAC-loaded TIF-Gels or TAC in vehicle solution (1% […] in distilled water). Weight development and disease activity scores were measured on a daily basis. On the last day of the experiment (day 18), the mice were anaesthetised using a mixture of ketamine 90-120 mg/kg bodyweight (Vétoquinol, Bern, Switzerland) and xylazine 8 mg/kg bodyweight (Bayer, Lyssach, Switzerland), and were subjected to mouse endoscopy to assess the extent of endoscopic colitis (M. R. Spalinger, et al., Protein tyrosine phosphatase non-receptor type 22 modulates colitis in a microbiota-dependent manner, J. Clin. Invest. 129, 2527-2541 (2019)) using the following parameters: 1) thickening of the colon wall, 2) vascularisation/bleeding, 3) extent of fibrin deposits, 4) granular appearance of the colon wall, 5) stool consistency. Each parameter was given a score from 0 (normal) to 3 (most severe appearance), resulting in a maximal total score of 15. After colonoscopy, the mice were sacrificed and colon tissue harvested for histology and isolation of lamina propria immune cells. Immune cells were isolated from the colon, mesenteric lymph nodes and the spleen, and analysed for immune cell subsets (M. R. Spalinger, et al., (2019) Loss of PTPN22 abrogates the beneficial effect of cohousing-mediated fecal microbiota transfer in murine colitis, Mucosal Immunol. 12, 1336-1347).
# To assess the microscopic extent of colitis, formalin-fixed, paraffin embedded sections of the most distal 1.5 cm of the colon were subjected to hematoxilin and eosin (H&E) staining using standard protocols (M. R. Spalinger, et al. (2019)). The sections were analysed by two blinded scientists for the extent of epithelial damage (score 0-4) and infiltration of immune cells (score 0-4) resulting in a maximal possible score of 8. Images were taken using a Zeiss Axio Imager.Z2 microscope (Zeiss), equipped with an AxioCam HRc (Zeiss, Jena, Germany) camera and ZEN imaging software (Zeiss, Germany).
# To analyse cytokine levels in the colons, colon pieces were lysed in PBS (1 ml PBS/[…] tissue) using a GentleMACS device from Miltenyi Biotec (Miltenyi Biotec, Bergisch Gladbach, Germany). Lysates were then analysed for cytokines using the Bio-Plex Pro Mouse Cytokine 23-plex Assay from Bio-Rad (Hercules, CA) according to the manufacturer's instructions.
# TIF-Gel acts as a platform able to host and release molecules with different polarity. Thus, the hydrophobic TAC was loaded in to TIF-Gel and its ability to reduce colitis severity was assessed also using a model of T cell mediated colitis, namely T cell transfer colitis. […]
# [4] = SAXS phase identification of MLO-water mesophases (TIF-Gel); type: physicochemical; conditions: 5 mg of TOFA and 1 mg of TAC in 100 mg of gel
# [5] = daily rectal instillation 100 μL
compound,measurement,setting,value
"C=CC[C@@H]1/C=C(\C)C[C@H](C)C[C@H](OC)[C@H]2O[C@@](O)(C(=O)C(=O)N3CCCC[C@H]3C(=O)O[C@H](/C(C)=C/[C@@H]3CC[C@@H](O)[C@H](OC)C3)[C@H](C)[C@@H](O)CC1=O)[C@H](C)C[C@@H]2OC [TAC, tacrolimus]",long-term stability of drug loaded into TIF-gel (drug content by HPLC),[1],stable
same,distribution of drug in the gel matrix,"[2]; Top, Middle and Bottom gel layers, HPLC",homogeneously distributed
same,drug crystallisation in the gel (WAXS),[2]; embedded in the 3D gel structure,do not form crystals
same,encapsulation efficacy,[2]; encapsulated in the TIF-Gel,100%
same,levels of IFN-γ,[3]; colonic tissues,reduced levels
same,levels of IL-17,[3]; colonic tissues,reduced levels
same,"first signs of colitis, day post T cell transfer",[3]; daily rectal instillation,~10 days
same,diarrhoea / disease activity score,[3]; [5],signs of diarrhoea
same,weight development,[3]; [5],progressive weight loss
same,relative abundance of T cells,"[3]; lamina propria, mesenteric lymph nodes and spleen",reduced the relative abundance of T cells
same,abundance of FOXP3+ (regulatory) T cells,"[3]; mouse, in vivo",not much effect
same,Th1 cells,[3]; vs empty TIF-Gels,reduced
same,Th17 cells,[3]; vs empty TIF-Gels,reduced
same,colon length,[3]; vs empty TIF-Gels,longer colons
same,spleen weight,[3]; vs empty TIF-Gels,reduced spleen weight
same,effect of drug entrapment on phase identity and thermal behaviour of the carrier gel,[4],did not affect the phase identity and thermal behaviour
